Read-outs that look alike come from different tables or passages of the source.

What is called EC50 is the concentration that produces a half-maximal response.

Assay [1] deals with Aβ42. Particulars: cited from earlier work; for GSM activity: endogenous bile acids.
In assay [2] the test system is Aβ42 in CHO-2B7 cells (CHO cells stably overexpressing APP695). The experiment in a line: Cell-based Aβ sandwich ELISA of conditioned media from CHO-2B7 cells treated 16 h. The arrangement: species or system Chinese hamster. Particulars: for fold less potent than CA 2a (Aβ42 EC50) / GSM activity: CHO-2B7 cells; for GSM activity: dose dependent studies. How it is done:
Chinese hamster ovary (CHO) cells stably overexpressing APP695 (CHO-2B7 cells) were grown in Ham’s F-12 medium (Life Technologies) supplemented with 10 % fetal bovine serum and 100 units/ml of penicillin and 100 μg/ml streptomycin. Cells were grown at 37 °C in a humidified atmosphere containing 5 % CO2 in tissue culture plates (Costar). The cells were harvested at confluence and then utilized for biochemical analyses. Compounds were dissolved in dimethyl sulfoxide (DMSO) and screened in CHO-2B7 cells. The cells were incubated for 16 h in the presence of the compound diluted into OptiMEM-reduced serum medium (Life Technologies, Carlsbad, CA, USA) containing 1 % fetal bovine serum.
Monoclonal antibodies to Aβ were generated by the Mayo Clinic Immunology Core facilities (Jacksonville, FL, USA). Ab5 recognizes an epitope in the amino terminus of Aβ (Aβ1-16), recognizes both monomeric and aggregated Aβ, and is human specific. […] Ab 2.1.3 was raised against Aβ35-42 and is specific for Aβx-42. […] Total Aβ level was determined by capture with Ab5 and detected with horseradish peroxidase (HRP)-conjugated 4G8 (a monoclonal antibody against Aβ17-24; Covance, Waltham, MA, USA) with the other Aβ peptides detected with HRP-conjugated Ab5. For the cell-free assay and measuring mouse endogenous Aβ, HRP-conjugated 4G8 was used as the secondary detection antibody. Aβ standards (Bachem, King of Prussia, PA, USA) were prepared by dissolving in hexafluoroisopropanol (HFIP) at 1 mg/ml with sonication, dried under nitrogen, resuspended at 2 mg/ml HFIP, sonicated again and dried under nitrogen. The resulting Aβ was resuspended in 0.01 % ammonium hydroxide, portioned into aliquots in EC buffer, and frozen at −80 °C.

The target of assay [3] is T1, γ-secretase (Homo sapiens, UniProt P49768).
T1 construct: The membrane derived from the H4 neuroglioma cells overexpressing APP695wt were prepared by carbonate extraction; endogenous in cells; host or cells: H4 neuroglioma cells overexpressing APP695wt (membranes, carbonate extraction)
As to the kind of experiment: In vitro γ-secretase (broken cell) assay, membranes of H4 neuroglioma cells overexpressing APP695wt, Aβ ELISA. It is filed as biochemical. Particulars: vs DMSO control, 2 h incubation. How it is done: Broken cell assays were performed with slight modifications from the previous studies. The membrane derived from the H4 neuroglioma cells overexpressing APP695wt were prepared by carbonate extraction and incubated at 37 °C for 2 h with CA at various concentrations. Aβ levels were quantified by sandwich ELISAs. For Aβ and AICD spectra, the recombinant C100Flag proteins were overexpressed and purified from Escherichia coli BL21 using a HiTrap Q-column (GE Life Science, Little Chalfont, U.K.). The membrane containing γ-secretase was isolated from the CHO S-1 cell line using sodium carbonate (100 mM, pH 11.0). For the in vitro γ-secretase assay, C100Flag recombinant protein at 25 μM was incubated with the membrane (100 μg/mL) in the presence of CA (20 μM) and DMSO in 150 mM sodium citrate buffer (pH 6.8) containing complete protease inhibitor (Roche, Indianapolis, IN) for 2 h at 37 °C.
(§1) Monoclonal antibodies to Aβ were generated by the Mayo Clinic Immunology Core facilities (Jacksonville, FL, USA). Ab5 recognizes an epitope in the amino terminus of Aβ (Aβ1-16), recognizes both monomeric and aggregated Aβ, and is human specific. […] Ab 2.1.3 was raised against Aβ35-42 and is specific for Aβx-42. […] For cell-based screens, Aβ was captured from conditioned medium with either Ab5, Ab38, Ab13.1.1, or Ab2.1.3 (coated at 10-50 μg/ml in EC buffer: 5 mM NaH2PO4-H2O, 20 mM Na2HPO4, 400 mM NaCl, 2.5 mM EDTA-full name, 151.5 μM BSA, 813 μM CHAPS, and 7.7 mM NaN3) on Immulon 4HBX Flat-Bottom Microfilter 96-well plates (Thermo Scientific, Waltham, MA, USA). Total Aβ level was determined by capture with Ab5 and detected with horseradish peroxidase (HRP)-conjugated 4G8 (a monoclonal antibody against Aβ17-24; Covance, Waltham, MA, USA) with the other Aβ peptides detected with HRP-conjugated Ab5. For the cell-free assay and measuring mouse endogenous Aβ, HRP-conjugated 4G8 was used as the secondary detection antibody. Aβ standards (Bachem, King of Prussia, PA, USA) were prepared by dissolving in hexafluoroisopropanol (HFIP) at 1 mg/ml with sonication, dried under nitrogen, resuspended at 2 mg/ml HFIP, sonicated again and dried under nitrogen. The resulting Aβ was resuspended in 0.01 % ammonium hydroxide, portioned into aliquots in EC buffer, and frozen at −80 °C. Following these steps, the Aβ is monomeric, as determined by size-exclusion chromatography.
On the technique in general: ELISA stands for enzyme-linked immunosorbent assay.

Assay [4] has as its system endogenous mouse Aβ (mAβ) in primary neuron-glia cultures. The experiment in a line: Primary mixed neuron-glia culture, endogenous mouse Aβ ELISA. Format: cell-based. How it is done:
Primary mixed neuron-glia cultures were prepared from postnatal day 0 (P0) C3HBL/6 mouse brains (Harlan Labs). Cerebral cortices were dissected from P0 mouse brains and were dissociated in 2 mg/ml papain (Worthington) and 50 μg/mL DNAse I (Sigma) at 37 °C for 20 min. They were then washed three times in sterile Hank’s balanced salt solution (HBSS) to inactivate the papain and switched to 5 % fetal bovine serume (HyClone) in Neurobasal-A growth media (Gibco), which includes 0.5 mM L-glutamine (Gibco), 0.5 mM GlutaMax (Life Technologies), 0.01 % antibiotic-antimycotic (Gibco), and 0.02 % SM1 supplement (Stemcell). The tissue mixture was then triturated three times using a 5 mL pipette followed by a Pasteur pipette, and strained through a 70 μm cell strainer. The cell mixture was then centrifuged at 200xg for 3 min, and re-suspended in fresh Neurobasal-A media. They were then plated onto poly-D-lysine coated 96well plates at 100,000 cells/well. Cells were maintained in the Neurobasal-A growth media mentioned above without fetal bovine serum (FBS) at 37 °C in a humidified 5 % CO2 chamber.
as §1

For assay [5], the system named is brain mAβ42, mAβ38 and total mAβ. As to the kind of experiment: Brain Aβ levels after intraperitoneal injection in wild type mice. It is filed as in vivo, mouse (C57BL/6 or CF-1). To be noted: 30 mg/kg IP, brains harvested after 30 min, 1, 2 and 3 h. How it is done:
25(R)-CA powder was initially dissolved in DMSO (<4.5 % in the final mixture) and then combined with polyethylene glycol (15)-hydroxystearate (Solutol), ethanol, and water at a ratio of (15:10:75). One molar equivalent of sodium hydroxide was added to the mixture. We performed CA intraperitoneal (IP) injections to wild-type mice (C57BL/6 or CF-1). The mice were injected with 25(R)-CA on the right side of the abdomen. The injections have been performed with various time points (30 min, 1 h, 2 h, and 3 h) and with multiple doses (30 mg per kg (mg/kg), 60 mg/kg, 75 mg/kg and 100 mg/kg). The number of each cohort is 6–8. We used 30 mg/kg of CA for the time-course experiments, and for the dose–response experiments the end-point was set at 30 min. The brains and serum are harvested and frozen for brain Aβ extraction.
The mouse brains were harvested at the age of 3 months. The brains were weighed and recorded. The Diethylamine/Sodium Chloride (DEA/NaCl) extraction buffer (0.4 % DEA) was added to each sample and homogenized using a sonicator. The samples were transferred to a poly-carbonate centrifuge tube and spun down at 50,000xg for 30 min at 4 °C. The supernatant was loaded on the vacuum manifold with the appropriate number of HLB Oasis columns. The samples were loaded on the conditioned column, filtered, and eluted using prepared elution buffer (90 % Methanol, 2 % NH4OH). The eluates are concentrated using the Thermo-Savant SpeedVac concentrator for a minimum of 2 h at 55 °C with radiant heat. The concentrated samples are reconstituted in a blocking buffer (0.67 % Bovine serum albumin (BSA)) at the appropriate volume.
Monoclonal antibodies to Aβ were generated by the Mayo Clinic Immunology Core facilities (Jacksonville, FL, USA). […] Total Aβ level was determined by capture with Ab5 and detected with horseradish peroxidase (HRP)-conjugated 4G8 (a monoclonal antibody against Aβ17-24; Covance, Waltham, MA, USA) with the other Aβ peptides detected with HRP-conjugated Ab5. […] Following these steps, the Aβ is monomeric, as determined by size-exclusion chromatography.

The mark [6] stands for this setting: lowering Aβ42, CHO-2B7 cells, 16 h, ELISA.
Where [7] appears, read: Cricetulus griseus, lowering Aβ42, CHO-2B7 cells, 16 h, ELISA.
[8] abbreviates: Cricetulus griseus, lowering Aβ42, CHO-2B7 cells, approximate value.
Where [9] appears, read: Cricetulus griseus, CHO-2B7, 16 h, lowering Aβ42, CHO-2B7 cells, 16 h, ELISA.

On to `O=C(O)[C@H](CC1CCC1)c1cc(Cl)c(OCC(F)(F)F)c(-c2ccc(C(F)(F)F)cc2)c1` [Cmpd 3, (R)-2-(5-chloro-6-(2,2,2-trifluoroethoxy)-4’-(trifluoromethyl)biphenyl-3-yl)-3-cyclobutylpropanoic acid], for which the EC50 in assay [1] (GSM activity, ref the previous literature) is 67 nM.

For `C[C@H](CCC(=O)O)[C@H]1CC[C@H]2[C@@H]3CC[C@@H]4C[C@H](O)CC[C@]4(C)[C@H]3CC[C@]12C` [lithocholic acid], the GSM activity entry in assay [1] is reported as “GSMs”.

In the case of `CC(CCC[C@@H](C)[C@H]1CC[C@H]2[C@@H]3CC=C4CCCC[C@]4(C)[C@H]3CC[C@]12C)C(=O)O` (stereo partly drawn) [Cmpd 13, 3-deoxy-CA], in assay [2], the “fold less potent than CA 2a (Aβ42 EC50)” value was “approximately 3 fold”. The compound also had an EC50 in assay [2] (setting [6]) of 670 nM.

With `C[C@H](CCC[C@H](C)C(=O)O)[C@H]1CC[C@H]2[C@@H]3CC=C4C[C@@H](O)CC[C@]4(C)[C@H]3CC[C@]12C` [Cmpd 2b, 25-(S)-CA], the “fold less potent than CA 2a (Aβ42 EC50)” value in assay [2] is “about 2 fold”. The same compound registered an EC50 in assay [2] (setting [6]) of 501 nM.

Take `C[C@H](CCCC(=O)O)[C@H]1CC[C@H]2[C@@H]3CC=C4C[C@@H](O[Si](C)(C)C(C)(C)C)CC[C@]4(C)[C@H]3CC[C@]12C` [Cmpd 5]: the EC50 in assay [2] (setting [7]) was 1780 nM; in assay [2] (setting [8]), around 2000 nM.

Take `CC(CCCC(C)C1CCC2C3CC=C4CC(F)CCC4(C)C3CCC12C)C(=O)O` (stereo not drawn) [Cmpd 12]: a half-maximal effect in assay [2] (setting [6]) (EC50) was put at 8910 nM.

Consider `C[C@@H](CO)CCC[C@@H](C)[C@H]1CC[C@H]2[C@@H]3CC=C4C[C@@H](O)CC[C@]4(C)[C@H]3CC[C@]12C` [27-OHC, 27-hydroxycholesterol], for which the GSM activity entry in assay [2] was “inactive”. Besides, the “Aβ42 EC50” value in assay [2] (setting [6]) is listed as “could not be determined”.

Turning to `C[C@H](CCC(=O)O)[C@H]1CC[C@H]2[C@@H]3CC[C@@H]4CCCC[C@]4(C)[C@H]3CC[C@]12C` [Cmpd 1, 5β-Cholanic acid], the EC50 in assay [1] (decreasing Aβ42) was around 5700 nM; in assay [1] (decreasing Aβ42, listed as 5β-cholanic acid), 5700 nM.

`CC(CCCC(C)C1CCC2C3C(O)CC4=CC(=O)CCC4(C)C3CCC12C)C(=O)O` (stereo not drawn) [7α-OH-4-CA, 7α-hydroxy-4-oxo-cholestenoic acid] registered an EC50 in assay [2] (setting [9]) of 4150 nM. For the same compound, the GSM activity entry in assay [2] is reported as “demonstrated GSM activity”.

With `C[C@H](NC(=O)Cc1cc(F)cc(F)c1)C(=O)N[C@H]1N=C(c2ccccc2)c2ccccc2N(C)C1=O` [Cmpd E, reference compound], the “decrease of total Aβ production” value in assay [3] is given as 77%. Further, in assay [3] (CA at 150 μM), the “decrease of Aβ42 production” value came to 91%. For the same compound, the “overall Aβ production” value in assay [4] was “decreased”.

Turning to `C[C@H](CCCC(=O)O)[C@H]1CC[C@H]2[C@@H]3CC=C4C[C@@H](O)CC[C@]4(C)[C@H]3CC[C@]12C` [Cmpd 6], the EC50 in assay [2] (setting [7]) was 1960 nM; in assay [2] (setting [8]), around 2000 nM.

`CC(CCCC(C)C1CCC2C3C(O)C=C4CC(O)CCC4(C)C3CCC12C)C(=O)O` (stereo not drawn) [7α-OH-CA, 7α-hydroxy-cholestenoic acid] registered a 50% effective concentration (EC50) in assay [2] (setting [9]) of 970 nM. Besides, the GSM activity entry in assay [2] is recorded as “demonstrated GSM activity”.

The compound `CC(C)CC(c1ccc(Cl)cc1)N1CC[C@@H](CC(=O)O)C[C@H]1c1ccc(C(F)(F)F)cc1` (stereo partly drawn) [Cmpd 4, reference compound] registered an EC50 in assay [2] (setting [9]) of 92 nM. In addition, in assay [4] (1 μM), the mAβ38 level entry is recorded as “increased” and the mAβ42 level entry is given as “decreased”. Moreover, the “brain Aβ levels” value in assay [5] is “expected Aβ modulation”.

As for `C[C@H](CCC(=O)O)[C@H]1CC[C@H]2[C@@H]3[C@@H](O)C[C@@H]4C[C@H](O)CC[C@]4(C)[C@H]3C[C@H](O)[C@]12C` [ursocholic acid], the GSM activity result in assay [1] was “GSMs”.

The values above are taken from PMC4501119, “Cholestenoic acid, an endogenous cholesterol metabolite, is a potent γ-secretase modulator” (Molecular Neurodegeneration, 2015).
